{"source": "ChEMBL document CHEMBL1151027", "about": "“Inhibition of human immunodeficiency virus-1 protease by a C2-symmetrical phosphinic acid amide” (Bioorg Med Chem Lett, 1994)", "key": {"[1]": {"biological_target": "Human immunodeficiency virus type 1 protease (Human immunodeficiency virus 1, UniProt Q72874)", "experiment": "Inhibitory activity if the compound was determined against HIV protease"}, "[2]": {"experiment": "(§1) Effective concentration required to inhibit HIV replication in peripheral blood mononuclear cells (PBL)", "assay_type": "functional, Homo sapiens"}, "[3]": {"experiment": "as §1", "assay_type": "functional", "settings": "Homo sapiens"}}, "data": [{"smiles": "CC(C)[C@H](NC(=O)[C@H](Cc1cccc2ccccc12)CS(=O)(=O)C(C)(C)C)C(=O)NC(Cc1ccccc1)P(N)(=O)C(Cc1ccccc1)NC(=O)[C@@H](NC(=O)[C@H](Cc1cccc2ccccc12)CS(=O)(=O)C(C)(C)C)C(C)C", "note": "(single isomer, unassigned)", "values": [{"measurement": "IC50", "setting": "[1]", "result": 0.25, "unit": "µM"}, {"measurement": "EC50", "setting": "[2]", "result": "> 10", "unit": "µM"}]}, {"smiles": "CC(C)[C@H](NC(=O)[C@H](Cc1cccc2ccccc12)CS(=O)(=O)C(C)(C)C)C(=O)N[C@H](Cc1ccccc1)P(N)(=O)[C@@H](Cc1ccccc1)NC(=O)[C@@H](NC(=O)[C@H](Cc1cccc2ccccc12)CS(=O)(=O)C(C)(C)C)C(C)C", "values": [{"measurement": "IC50", "setting": "[1]", "result": 0.001, "unit": "µM"}, {"measurement": "EC50", "setting": "[2]", "result": 0.1, "unit": "µM"}]}, {"smiles": "COP(=O)(CNC(=O)[C@@H](NC(=O)[C@H](Cc1cccc2ccccc12)CS(=O)(=O)C(C)(C)C)C(C)C)CNC(=O)[C@@H](NC(=O)[C@H](Cc1cccc2ccccc12)CS(=O)(=O)C(C)(C)C)C(C)C", "values": [{"measurement": "IC50", "setting": "[1]", "result": 0.95, "unit": "µM"}, {"measurement": "EC50", "setting": "[2]; Homo sapiens", "result": "> 10", "unit": "µM"}]}, {"smiles": "CC(C)[C@H](NC(=O)[C@H](Cc1cccc2ccccc12)CS(=O)(=O)C(C)(C)C)C(=O)NCP(N)(=O)CNC(=O)[C@@H](NC(=O)[C@H](Cc1cccc2ccccc12)CS(=O)(=O)C(C)(C)C)C(C)C", "values": [{"measurement": "IC50", "setting": "[1]", "result": 0.0055, "unit": "µM"}, {"measurement": "EC50", "setting": "[2]; Homo sapiens", "result": "> 10", "unit": "µM"}]}, {"smiles": "CC(C)[C@H](NC(=O)[C@H](Cc1cccc2ccccc12)CS(=O)(=O)C(C)(C)C)C(=O)N[C@H](Cc1ccccc1)P(=O)(O)[C@@H](Cc1ccccc1)NC(=O)[C@@H](NC(=O)[C@H](Cc1cccc2ccccc12)CS(=O)(=O)C(C)(C)C)C(C)C", "values": [{"measurement": "IC50", "setting": "[1]", "result": 0.085, "unit": "µM"}, {"measurement": "EC50", "setting": "[2]; Homo sapiens", "result": "> 10", "unit": "µM"}]}, {"smiles": "CC(C)[C@H](NC(=O)[C@H](Cc1cccc2ccccc12)CS(=O)(=O)C(C)(C)C)C(=O)NCP(=O)(CNC(=O)[C@@H](NC(=O)[C@H](Cc1cccc2ccccc12)CS(=O)(=O)C(C)(C)C)C(C)C)NN", "values": [{"measurement": "IC50", "setting": "[1]", "result": 0.0085, "unit": "µM"}, {"measurement": "EC50", "setting": "[2]; Homo sapiens", "result": "> 10", "unit": "µM"}]}, {"smiles": "CC(C)[C@H](NC(=O)[C@H](Cc1cccc2ccccc12)CS(=O)(=O)C(C)(C)C)C(=O)NC(Cc1ccccc1)P(=O)(O)C(Cc1ccccc1)NC(=O)[C@@H](NC(=O)[C@H](Cc1cccc2ccccc12)CS(=O)(=O)C(C)(C)C)C(C)C", "note": "(single isomer, unassigned)", "values": [{"measurement": "IC50", "setting": "[1]", "result": 0.0005, "unit": "µM"}, {"measurement": "EC50", "setting": "[3]", "result": "> 10", "unit": "µM"}]}, {"smiles": "CC(C)[C@H](NC(=O)[C@H](Cc1cccc2ccccc12)CS(=O)(=O)C(C)(C)C)C(=O)NCP(=O)(O)CNC(=O)[C@@H](NC(=O)[C@H](Cc1cccc2ccccc12)CS(=O)(=O)C(C)(C)C)C(C)C", "values": [{"measurement": "IC50", "setting": "[1]", "result": 0.0011, "unit": "µM"}, {"measurement": "EC50", "setting": "[2]; Homo sapiens", "result": "> 10", "unit": "µM"}]}]}
